In patent publication US20260184669A1, “LIPID COMPOUND AND COMPOSITION FOR DELIVERY OF ACTIVE SUBSTANCE” (KOREA RESEARCH INSTIUTE OF BIOSCIENCE AND BIOTECHNOLOGY, priority 2022, published 2026):

Key:
[1] = tested on: female C57BL/6 mice; assay: Protein expression efficiency of fLuc mRNA-LNPs after intramuscular injection (IVIS whole-body luminescence); format: in vivo; details: for Total flux 1 hour / Total flux 3 hours / Total flux 6 hours / Total flux 48 hours / Total flux 72 hours / Total flux: fLuc mRNA-LNP, intramuscular injection, luminescence at injection site, mice; for Total flux 1 hour: 1 hour after administration; for Total flux 3 hours: 3 hours after administration; for Total flux 6 hours: 6 hours after administration; for Total flux 48 hours: 48 hours after administration; for Total flux 72 hours: 72 hours after administration; for Total flux: after administration; for Fold increase in total flux at 3 h, MC3: relative to control LNP formulated with MC3; for Fold increase in total flux at 3 h, MC3 / Fold increase in total flux at 3 h, SM-102: 3 hours after intramuscular injection; for Fold increase in total flux at 3 h, SM-102: relative to control LNP formulated with SM-102
Procedure: fLuc mRNA-LNPs formulated using various ionizable lipids were prepared according to the method described in Example 27 and administered in vivo via intramuscular (I. M.) or intravenous (IV.) injection to compare the resulting protein expression efficiency in vivo. As a control, EGFP mRNA-LNPs formulated with commercially available ionizable lipids MC3 or SM-102 were used. All mRNA-LNPs were administered at equal mRNA doses per body weight across different concentration groups (n≥4).
Specifically, the dose of mRNA-LNPs was adjusted to 0.1-0.5 mg/kg of body weight, and the formulation was administered via I.M. or I.V. injection to female C57BL/6 mice (6-10 weeks old, Orient Bio, Korea) Subsequently, […], whole-body luminescence images were acquired using an in vivo imaging system (IVIS Lumina III, PerkinElmer, Walzam, MA, USA). To assess protein expression levels, 200 μL of D-luciferin (15 mg/mL) was administered via intraperitoneal (I.P.) injection 10 minutes prior to imaging. During image acquisition, the animals were anesthetized by inhalation of 3% isoflurane in 97% medical grade oxygen. In addition, the acquired luminescence images were quantitatively analyzed using imaging software (Living Image Software Version 4.4; PerkinElmer, USA).
After intramuscular injection of the fLuc mRNA-LNPs, the luminescence intensity at the injection site was measured over time.
Furthermore, the luminescence intensity at the injection site 3 hours after intramuscular injection was measured, and the relative protein expression efficiency was compared to that of control LNPs formulated with MC3 or SM-102.

[2] = tested on: IL-1β mRNA level in HEK-293T cells; details: human
[3] = mRNA encapsulation efficiency (Quant-IT RiboGreen RNA assay); format: physicochemical; details: mRNA encapsulation efficiency of mRNA-LNP made with the ionizable lipid; average of two measurements
Procedure: The mRNA encapsulation efficiency (EE, %) of LNPs containing mRNA was measured using the Quant-IT™ RiboGreen® RNA assay kit (Invitrogen, USA).
The diluted samples were added to each well of a 96-well plate. Group A (without Triton X-100) was supplemented with 50 μL of 1×TE buffer, while Group B (with Triton X-100) was supplemented with 50 μL of 1×TE buffer containing 2% Triton-X 100. To release the encapsulated mRNA, the LNPs were treated with Triton-X 100 and incubated at 37° C. for 10 minutes. Subsequently, 100 μL of ribogreen reagent was added to each well. The fluorescence intensities of Group A and Group B were measured using a multi-plate reader (λex 480 nm, λem 520 nm), and mRNA encapsulation efficiency (%) was calculated using Equation 1 below. The encapsulation efficiency for each LNP was determined as the average of two independent measurements.

[4] = tested on: IL-6 mRNA level in HEK-293T cells; details: human
[5] = tested on: CCL2 mRNA level in HEK-293T cells; details: human
[6] = Size, polydispersity index and surface charge of mRNA-LNP (Malvern Zetasizer Nano ZS90); format: physicochemical; details: for PDI / size (nm) Number: mRNA-LNP made with the ionizable lipid at its optimal formulation (Table 2); for size (nm) Number: diluted with PBS to 1 μg/mL mRNA; for Zeta (mV): surface charge of mRNA-LNP made with the ionizable lipid at its optimal formulation (Table 2)
Procedure: Each mRNA-LNPs produced in Example 27 was diluted with PBS to a final mRNA concentration of 1 μg/mL. The size, polydispersity index (PDI), and surface charge of the mRNA-LNPs were then measured using a Malvern Zetasizer Nano ZS90 (Malvern Instruments, UK).
For particles intended for systemic administration, such as via blood vessels, the particle size must be less than 200 nm in order to pass through the endothelial capillaries of the liver. In addition, the size distribution is considered uniform only when the PDI is 0.3 or less, which enables consistent and efficient therapeutic effects (Non-patent document 3 [Danaei, M. et al). Pharmaceutics 2018, 10, 57]).

[7] = tested on: CCL3 mRNA level in HEK-293T cells; details: human
[8] = Stability of mRNA-LNPs according to storage temperature and duration; format: physicochemical; details: for Normalized EE % D-1 / Size (nm) D-1 / PDI D-1: day 1; for Normalized EE % D-7 / PDI D-7 / Size (nm) D-7: day 7; for Normalized EE % D-30 / PDI D-30 / Size (nm) D-30: day 30
Procedure: Stability of fLuc mRNA-LNPs produced using various ionizable lipids according to the method of Example 27, was assessed by storing the LNPs at 4° C. and 25° C. At 1, 7, and 30 days post-manufacture, the size, PDI, and encapsulation efficiency (EE) of each mRNA-LNPs samples were measured using the methods described in Experimental Examples 2 and 3.

Row | Compound | Total flux 1 hour [1] | Total flux 3 hours [1] | Total flux 6 hours [1] | Total flux 48 hours [1] | Total flux 72 hours [1] | Total flux [1] | Fold increase in total flux at 3 h, MC3 [1] | Fold increase in total flux at 3 h, SM-102 [1] | IL-1β Average [2] | EE (%) [3] [%] | IL-6 Average [4] | CCL2 Average [5] | PDI [6] | size (nm) Number [6] [nm] | Zeta (mV) [6] [mV] | CCL3 Average [7] | Normalized EE % D-1 ([8]; fLuc mRNA-LNP stored at 4° C.) [%] | Size (nm) D-1 ([8]; fLuc mRNA-LNP stored at 4° C.) [nm] | Normalized EE % D-7 ([8]; fLuc mRNA-LNP stored at 4° C.) [%] | PDI D-7 ([8]; fLuc mRNA-LNP stored at 4° C.) | also measured
1 | CCCCCCCCCCCOC(=O)CCCCCN(CCCCCCCC(=O)OC(CCCCCCCC)CCCCCCCC)CC(O)CCCCNC(=O)c1c[nH]c(O)n1 (stereo not drawn) [Compound 35, Heptadecan-9-yl 8-((2-hydroxy-6-(2-hydroxy-1H-imidazole-4-carboxamido)hexyl)(6-oxo-6-(undecyloxy)hexyl)amino)octanoate] | 1.54E+07 | 4.49E+07 | 5.04E+07 | 7.96E+05 | 1.27E+06 | 6.12E+06 | 3.64 | 0.40 | 0.91 | 90 | 1.14 | 1.42 | 0.040 | 123 | −3.90 | 2.30 | 90.2 | 123.4 | 83.7 | 0.089 | Size (nm) D-7 ([8]; fLuc mRNA-LNP stored at 4° C.): 130.3 nm; Normalized EE % D-30 ([8]; fLuc mRNA-LNP stored at 4° C.): 88.6%; PDI D-30 ([8]; fLuc mRNA-LNP stored at 4° C.): 0.127; Size (nm) D-30 ([8]; fLuc mRNA-LNP stored at 4° C.): 141.3 nm; Normalized EE % D-1 ([8]; fLuc mRNA-LNP stored at 25° C.): 90.2%; PDI D-1 ([8]; fLuc mRNA-LNP stored at 25° C.): 0.040; Size (nm) D-1 ([8]; fLuc mRNA-LNP stored at 25° C.): 123.4 nm; Normalized EE % D-7 ([8]; fLuc mRNA-LNP stored at 25° C.): 85.3%; PDI D-7 ([8]; fLuc mRNA-LNP stored at 25° C.): 0.098; Size (nm) D-7 ([8]; fLuc mRNA-LNP stored at 25° C.): 133.3 nm; Normalized EE % D-30 ([8]; fLuc mRNA-LNP stored at 25° C.): 88.3%; PDI D-30 ([8]; fLuc mRNA-LNP stored at 25° C.): 0.076; Size (nm) D-30 ([8]; fLuc mRNA-LNP stored at 25° C.): 123.8 nm
2 | CCCCCCCCCCCOC(=O)CCCCCN(CCCCCCCC(=O)OC(CCCCCCCC)CCCCCCCC)CC(O)CCCCNC(=O)c1nccn1C (stereo not drawn) [Compound 36, Heptadecan-9-yl 8-((2-hydroxy-6-(1-methyl-1H-imidazole-2-carboxamido)hexyl)(6-oxo-6-(undecyloxy)hexyl)amino)octanoate] | 1.62E+07 | 4.51E+07 | 3.18E+07 | 3.79E+06 | 3.09E+06 | 1.03E+07 | 3.65 | 0.40 | 0.96 | 87 | 1.30 | 1.86 | 0.073 | 112 | −3.19 | 2.40 | 87.2 | 111.9 | 89.1 | 0.146 | Size (nm) D-7 ([8]; fLuc mRNA-LNP stored at 4° C.): 114.4 nm; Normalized EE % D-30 ([8]; fLuc mRNA-LNP stored at 4° C.): 86.6%; PDI D-30 ([8]; fLuc mRNA-LNP stored at 4° C.): 0.076; Size (nm) D-30 ([8]; fLuc mRNA-LNP stored at 4° C.): 120.9 nm; Normalized EE % D-1 ([8]; fLuc mRNA-LNP stored at 25° C.): 87.2%; PDI D-1 ([8]; fLuc mRNA-LNP stored at 25° C.): 0.073; Size (nm) D-1 ([8]; fLuc mRNA-LNP stored at 25° C.): 111.9 nm; Normalized EE % D-7 ([8]; fLuc mRNA-LNP stored at 25° C.): 89.0%; PDI D-7 ([8]; fLuc mRNA-LNP stored at 25° C.): 0.123; Size (nm) D-7 ([8]; fLuc mRNA-LNP stored at 25° C.): 110.6 nm; Normalized EE % D-30 ([8]; fLuc mRNA-LNP stored at 25° C.): 83.8%; PDI D-30 ([8]; fLuc mRNA-LNP stored at 25° C.): 0.092; Size (nm) D-30 ([8]; fLuc mRNA-LNP stored at 25° C.): 119.2 nm
